Measurements published in article PMC11263240 (Pharmaceutical Research, 2024).
Counter-ions that a name gives are not always drawn. Like-named read-outs stand apart in the source and are kept apart here.

Experiments:
Pgp [1] = conditions: 30 min after intravenous injection of tariquidar doses above 6 mg/kg; cited from earlier work
Pgp [2] = assay: Inhibition of Pgp efflux at the CNS by tariquidar in vivo; parameters: species or system rat; conditions: tariquidar 7.5 mg/kg IV, 30 min before ondansetron 10 mg/kg IV, wild type rats
Method: (§1) Animals previously used in the plasma pharmacokinetics study were included following a two-week washout period; and additional animals were added to achieve n = 4–6 per time point. […] Groups of rats were sacrificed at 0.16, 0.25, 0.5, 1, 1.5, 2, and 2.5 h under isoflurane anesthesia, and terminal samples were collected including plasma, brain, spinal cord, and cerebrospinal fluid from cisterna magna (CSF) and stored at −20°C.
(§2) The whole dataset included mean ondansetron profiles of OT-M and OT-F in plasma, brain, spinal cord, and CSF obtained in this study and previous data for male and female WT and KO animals. […] Several functions to describe tariquidar-induced Pgp inhibition were considered. […] The final model included a separate term for describing Pgp function in OT groups (kPgp,TRQ). Other parameters were shared across WT, KO, and OT models. All model parameters were estimated. A separate set of parameters was estimated for female cohorts (WT-F, KO-F, OT-F) using the same final model structure.

[3] = format: in vivo
Pgp [4] = conditions: read-out: affinity to Pgp (KD); cited from earlier work
[5] = Tariquidar concentrations in plasma, brain, spinal cord and CSF after IV administration; format: in vivo, rat; conditions: 7.5 mg/kg IV; for half-life: Sprague Dawley, rat, plasma
Method: as §1
Agilent 1260 Infinity HPLC equipped with a photodiode array detector was used (Agilent, Santa Clara, CA, USA) in this work.
Data analysis was performed separately for male (OT-M) and female (OT-F) rat groups.

Pgp [6] = conditions: cited from earlier work
[7] = Semi-physiological pharmacokinetic model of ondansetron systemic and CNS disposition (estimated parameters); format: in vivo, rat; conditions: for k12 Distribution rate constant to peripheral distribution compartment / k13 Distribution rate constant to brain compartment / k14 Distribution rate constant to spinal cord compartment / k15 Distribution rate constant to CSF compartment / k21 Distribution rate constant from peripheral distribution compartment / k31 Distribution rate constant from brain compartment / k35=45 Rate constant for brain/spinal cord and CSF exchange / k41 Distribution rate constant from spinal cord compartment / k51 Distribution rate constant from CSF compartment / k53=54 Rate constant for brain/spinal cord and CSF exchange: model estimate shared across WT, KO, OT; for kPgp,TRQ Rate constant for Pgp-mediated efflux from the CNS for OT animals / kPgp Rate constant for Pgp-mediated efflux from the CNS: model estimate; for kPgp,TRQ Rate constant for Pgp-mediated efflux from the CNS for OT animals: OT group (with tariquidar); for kPgp Rate constant for Pgp-mediated efflux from the CNS: wild type animals, ondansetron alone; for Vd / k el: rat, plasma, brain, spinal cord, CSF, iv, 10 mg/kg
Method: Interconnectivity of CNS compartments followed animal physiology (A3 - brain, A4 – spinal cord, A5 - CSF), and previously published CNS model were consulted. The volume of the brain (Vbrain) was fixed to a previously determined value of 1.8 mL which was also in agreement with the brain weight reported before. The volume of the CSF compartment (VCSF) was fixed to 0.25 mL [25]. The volume of the spinal cord (Vspinal) was measured and reported in our previous study and was fixed to 0.6 mL. First order rate constant were used to describe a bidirectional passive permeability between the central disposition compartment (with the volume V1) and various CNS compartments (k13, k31, k14, k41, k15, k51) and distributional terms between CNS compartments (k35, k53, k45, k54). Pgp efflux at the BBB was described using a first-order term (kpgp) and was included for wild type animals only; the term was set to zero in KO rats. The following differential Eqs. (1–5) were used: 1 dA1/dt=k21·A2+k31·A3+k41·A4+k51·A5-kel+k12+k13+k14+k15·A1+kPgp·A3+kPgp·A4 2 dA2/dt=k12·A1-k21·A2 3 dA3/dt=k13·A1+k53·A5-k31+k35+kPgp·A3 4 dA4/dt=k14·A1+k54·A5-k41+k45+kPgp·A4 5 dA5/dt=k15·A1+k35·A3+k45·A4-k51+k53+k54·A5
as §2
R (version 3.31) and Rstudio (version 1.2.5001, Boston, MA, USA) with Ubiquity package were used for model development as described before.

[8] = CNS disposition of ondansetron (brain, spinal cord, CSF) after IV co-administration with tariquidar; format: in vivo, rat; conditions: ondansetron 10 mg/kg + tariquidar 7.5 mg/kg IV
Method: as §1
Agilent 1260 Infinity HPLC equipped with a photodiode array detector was used (Agilent, Santa Clara, CA, USA) in this work. […] Inter-day and intra-day accuracy and precision of the assay were within 15%.
A standard noncompartmental analysis was performed using average plasma concentration–time data (samples obtained from sequential and terminal experiments were combined) in Phoenix WinNonlin version 8.1 (Certara, Princeton, NJ). For plasma, the area under the plasma concentration–time curve from time zero to infinity (AUCplasma), systemic clearance (CL), volume of distribution at steady state (Vd,ss), half-life (t1/2,plasma), and mean residence time (MRT) were calculated. For brain, spinal cord, and CSF the area under the tissue concentration–time curve (AUCtissue) and half-life in tissue (t1/2,tissue) were reported.
However, since the AUC values were based on terminal samples, no statistical comparison among the groups could be performed.

[9] = ondansetron alone 10 mg/kg IV, cited from earlier work
[10] = parameters: method as in PMID 15275776; conditions: cited from earlier work
[11] = Noncompartmental plasma pharmacokinetics of ondansetron after IV co-administration with tariquidar; format: in vivo, rat; conditions: ondansetron 10 mg/kg with tariquidar, wild type rats vs wild-type (and Pgp KO) rats
Method: The study was conducted under the protocol approved by the Institutional Animal Care and Use Committee at Rutgers University. Wild-type Sprague Dawley rats (males of 10–12 weeks, weighing 300–350 g and females of 12–14 weeks, weighing 250–280 g) were purchased from Horizon Discovery (previously Sage Labs Inc., Boyertown, PA). Animals were housed in a vivarium under controlled temperatures and 12/12 h dark/light cycle with free access to food and water. Right jugular vein was cannulated to allow for accurate intravenous dosing using polyethylene tubing (PE-50, Braintree Scientific, Braintree, MA). The surgery was performed under light isoflurane anesthesia, and after that animals were allowed to recover for 24 h. Intradermal bupivacaine and subcutaneous meloxicam were provided as analgesia. […]
A standard noncompartmental analysis was performed using average plasma concentration–time data (samples obtained from sequential and terminal experiments were combined) in Phoenix WinNonlin version 8.1 (Certara, Princeton, NJ). For plasma, the area under the plasma concentration–time curve from time zero to infinity (AUCplasma), systemic clearance (CL), volume of distribution at steady state (Vd,ss), half-life (t1/2,plasma), and mean residence time (MRT) were calculated. […]

## COc1cc2c(cc1OC)CN(CCc1ccc(NC(=O)c3cc(OC)c(OC)cc3NC(=O)c3cnc4ccccc4c3)cc1)CC2 [Tariquidar]
Pgp [1]
  inhibition of Pgp: complete inhibition
Pgp [2]
  inhibition of Pgp efflux of ondansetron in the brain and spinal cord: almost complete inhibition
[3]; tariquidar 15 mg/kg 30 min before ondansetron 10 mg/kg
  toxicity in rats immediately after ondansetron injection: toxicity
[3]; tariquidar dose decreased to 7.5 mg/kg, ondansetron 10 mg/kg
  toxicity in rats after ondansetron injection: eliminating this toxicity
Pgp [4]
  Kd: 5.1 nM
[5]; female rats
  half-life: 132 min
[5]; male rats
  half-life: 186 min
[5]; rats, limit of detection 50 ng/mL for CSF
  Tariquidar detection in CSF samples: could not be detected
Pgp [6]
  inhibitory activity (IC50): nM-range

## Cc1nccn1CC1CCc2c(c3ccccc3n2C)C1=O (stereo not shown) [Ondansetron, Ondansetron hydrochloride]
[7]; Female
  k12 Distribution rate constant to peripheral distribution compartment: 4.37 h⁻¹
  k13 Distribution rate constant to brain compartment: 13.0 h⁻¹
  k14 Distribution rate constant to spinal cord compartment: 3.60 h⁻¹
  k15 Distribution rate constant to CSF compartment: 0.518 h⁻¹
  k21 Distribution rate constant from peripheral distribution compartment: 2.32 h⁻¹
  k31 Distribution rate constant from brain compartment: 25.2 h⁻¹
  k35=45 Rate constant for brain/spinal cord and CSF exchange: 0.914 h⁻¹
  k41 Distribution rate constant from spinal cord compartment: 31.5 h⁻¹
  k51 Distribution rate constant from CSF compartment: 47.3 h⁻¹
  k53=54 Rate constant for brain/spinal cord and CSF exchange: 79.9 h⁻¹
  kPgp,TRQ Rate constant for Pgp-mediated efflux from the CNS for OT animals: 0.0001 h⁻¹
  kPgp Rate constant for Pgp-mediated efflux from the CNS: 101 h⁻¹
[7]; Male
  k12 Distribution rate constant to peripheral distribution compartment: 2.14 h⁻¹
  k13 Distribution rate constant to brain compartment: 17.6 h⁻¹
  k14 Distribution rate constant to spinal cord compartment: 9.37 h⁻¹
  k15 Distribution rate constant to CSF compartment: 0.081 h⁻¹
  k21 Distribution rate constant from peripheral distribution compartment: 2.62 h⁻¹
  k31 Distribution rate constant from brain compartment: 39.6 h⁻¹
  k35=45 Rate constant for brain/spinal cord and CSF exchange: 0.928 h⁻¹
  k41 Distribution rate constant from spinal cord compartment: 71.0 h⁻¹
  k51 Distribution rate constant from CSF compartment: 6.84 h⁻¹
  k53=54 Rate constant for brain/spinal cord and CSF exchange: 66.6 h⁻¹
  kPgp,TRQ Rate constant for Pgp-mediated efflux from the CNS for OT animals: 0.002 h⁻¹
  kPgp Rate constant for Pgp-mediated efflux from the CNS: 81.9 h⁻¹
[7]; female, Sprague Dawley, with tariquidar (co-administered), read-out: V1,TRQ Central volume of distribution
  Vd: 0.0113 L
[7]; female, Sprague Dawley, with tariquidar (co-administered), read-out: kel,TRQ Systemic elimination rate constant for OT animals (converted)
  k el: 0.000839 s⁻¹
[7]; female, read-out: V1 Central volume of distribution
  Vd: 0.0133 L
[7]; female, read-out: kel Systemic elimination rate constant (converted)
  k el: 0.00141 s⁻¹
[7]; male, Sprague Dawley, with tariquidar (co-administered), read-out: V1,TRQ Central volume of distribution
  Vd: 0.0127 L
[7]; male, Sprague Dawley, with tariquidar (co-administered), read-out: kel,TRQ Systemic elimination rate constant for OT animals (converted)
  k el: 0.000939 s⁻¹
[7]; male, read-out: V1 Central volume of distribution
  Vd: 0.0175 L
[7]; male, read-out: kel Systemic elimination rate constant (converted)
  k el: 0.001 s⁻¹
[8]; Brain, OT-F: female rats
  AUCtissue,0-∞: 19.16 h⋅μg⋅mL^−1
[8]; Brain, OT-M: male rats
  AUCtissue,0-∞: 22.0 h⋅μg⋅mL^−1
[8]; CSF, OT-F: female rats
  AUCtissue,0-∞: 1.49 h⋅μg⋅mL^−1
[8]; CSF, OT-M: male rats
  AUCtissue,0-∞: 1.37 h⋅μg⋅mL^−1
[8]; Spinal Cord, OT-F: female rats
  AUCtissue,0-∞: 15.6 h⋅μg⋅mL^−1
[8]; Spinal Cord, OT-M: male rats
  AUCtissue,0-∞: 15.0 h⋅μg⋅mL^−1
[9]; Brain, female Pgp knockout rats
  KP_KO: 3.04
[9]; Brain, female wild type rats
  KP_WT: 0.71
[9]; Brain, male Pgp knockout rats
  KP_KO: 2.52
[9]; Brain, male wild type rats
  KP_WT: 0.46
[9]; CSF, female Pgp knockout rats
  KP_KO: 0.22
[9]; CSF, female wild type rats
  KP_WT: 0.11
[9]; CSF, male Pgp knockout rats
  KP_KO: 0.19
[9]; CSF, male wild type rats
  KP_WT: 0.06
[9]; Spinal Cord, female Pgp knockout rats
  KP_KO: 1.34
[9]; Spinal Cord, female wild type rats
  KP_WT: 0.47
[9]; Spinal Cord, male Pgp knockout rats
  KP_KO: 1.78
[9]; Spinal Cord, male wild type rats
  KP_WT: 0.39
[10]
  effect of intrathecal administration in a neuropathic animal model: dose-dependent antinociceptive effect
[11]
  plasma ondansetron concentration in comparison to ondansetron administered alone: almost doubled
